Test results from patent publication US12030891B2, “Xanthonic compounds and their use as antifouling agents” (CIIMAR—CENTRO INTERDISCIPLINAR DE INVESTIGACAO MARINHA E …, priority 2018, dated 2024).

Key:
[1] = test system: Mytilus galloprovincialis larvae; experiment: Anti-settlement bioassay on xanthonic based marine coatings; format: in vivo; settings: for reduction in the larvae settlement: incorporated in polyurethane (PU) marine paint at 2 wt %; for reduction of larval settlement: polyurethane based marine paint coating (1.7 wt. %)
Description: None instead, and depending on the xanthonic chemical functionalities and density, minor adjustments on those proportions were performed, in order to maintain the main coatings properties (e.g. curing time and adhesion). In addition, and to promote the compatibility and homogeneity of the antifoulants in the corresponding polymeric formulations, a prior dissolution step, in accurate pure and dehumidified organic solvents, may be comprised, followed by its addition and blending to the paint components system. The selection and content of the organic solvent must also rely on its compatibility with the components of each polymeric system.
The antifouling effectiveness of xanthonic based marine coating formulations was assessed by an in vivo anti-settlement bioassay on coated culture multiwell plates, using Mytilus galloprovincialis adhesive mussel plantigrades larvae as target species.

[2] = Leaching test of antifoulant from coatings (adapted from ISO15181); format: physicochemical; settings: PU coating, 45 days submerged in artificial seawater
[3] = Luminescent Vibrio fischeri ecotoxicity assay (ISO11348); format: cell-based; settings: luminescent Vibrio fischeri bacteria (NRRL-B-11177), contact time of 30 min, read-out: LC50 (inhibition of light radiation emitted)
Description: Luminescent Vibrio fischeri ecotoxicity assessment (ISO11348) was performed by IK4 TEKNIKER accordingly to the EU hazard assessment of substances and European Ecolabel (ISO 113482). Luminescent Vibrio fischeri bacteria test (NRRL-B-11177) was used as a standard test to evaluate the ecotoxicity of the most promising AF compounds. Vibrio fischeri bacteria from HACH-LANGE GmbH were grown in laboratory in standard conditions according to guidelines and exposed to a dilution serial of each compound (1000, 500, 250, 125, 62.5 mg/L). After 5, 15 and 30 min of exposure, the light emitted as a by-product of Vibrio fischeri cellular respiration was measured at 490 nm. Any inhibition of cellular activity results in a decreased rate of respiration and a corresponding decrease in the rate of luminescence. The decrease of bacterial luminescence measured after 5, 15 or 30 min of exposition was used as test endpoint. Luminescence was measured using a LUMIStox photometer from DR LANGE, after a contact time of 15 min and 30 min at 15±1° C., taking into account a correction factor, fk, which is a measure of intensity change of control samples during the exposure time.
The pH of all samples was within the interval 6.0-8.5. A 2% solution of sodium chloride (NaCl) in deionized water (20 g/L) was used as dilution medium and K2Cr2O7 11.3 μg·mL^−1) was used as positive control.

[4] = test system: Phaeodactylum tricornutum; experiment: Algae growth inhibition test (OECD 201); format: cell-based
Description: This test was executed using […], which contains all the material necessary to perform growth inhibition tests with the marine diatom Phaeodactylum Tricornutum. The species of alga Phaeodactylum Tricornutum, were incubated with the testing leaching samples, for 72 hours, in disposable cells of 10 cm path-length. […] This terminology is used instead of the standard EC50 when the test material is not completely soluble at the test treat rates.

Artemia salina = Artemia salina lethality bioassay; format: in vivo; settings: even at 50 μM, 48 h of exposure
Description: General toxicity to non-target species was evaluated using the brine shrimp (Artemia salina) lethality test (Meyer et al., 1982). A. salina cysts were allowed to hatch in nutrient-enriched seawater for approximately 48 hours at 25° C. Newly hatched instar I nauplii were harvested for toxicity test performed in 96-wells microplates with eight replicates per condition and 15-20 nauplii per well. Test solutions of the most promising sulfated antifouling compounds (50 and 25 μM) were prepared in filtered seawater. K2Cr2O7 (13.6 μM) was included as positive control and DMSO as negative control. Percentage of mortality was determined at 48 h of exposure.

Daphnia magna = experiment: Daphnia acute immobilization test (OECD 202); format: in vivo
Description: This test was performed using DAPHTOXKIT F MAGNATM. Daphnia magna are commonly known as water fleas, due to their jumping swimming resemblance to the movement of the fleas. Its short life span and reproductive capabilities make it an ideal organism for analytical use.
The swimming capability of Daphnia Magna was assessed after 48 hours of exposure to the diluted testing samples. The Daphnia were bred in the laboratory and should be no more than 24 hours old. The number of immobilized Daphnia was registered at 24 hours and 48 hours, for the calculation of EL50 and comparison with the control values. The EL50 is the effective concentration of the sample that is expected to cause immobilization to 50% of Daphnia.
Note that for this toxicity test, the leaching was obtained only from the WAF method test using the samples and Daphnia's mineral medium as […] because standard seawater is harmful to Daphnia.

O=c1c2ccccc2oc2c(O)c(O)ccc12 [3,4dOHx, 3,4-dihydroxy-9H-xanthen-9-one]
reduction in the larvae settlement ([1]; after 40 h): about 80%
reduction in the larvae settlement ([1]; after the first 15 h): 55%
incorporated antifoulant leached out of the polymeric matrix [2]: 0.008%
50% inhibition of luminescence concentration (EC50) at 30 min [3]: > 750 µg/mL
EL50 (72 h) alga growth inhibition [4]: > 100 µg/mL
toxicity to Artemia salina nauplii (Artemia salina): non-toxic effects

O=C(O)COc1ccc2c(=O)c3ccccc3oc2c1OCC(=O)O [D3,4 COOHX, 2,2′-((9-oxo-9H-xanthene-3,4-diyl)bis(oxy))diacetic acid]
toxicity to Artemia salina nauplii (Artemia salina): non-toxic effects

COC(=O)COc1ccc2c(=O)c3ccccc3oc2c1OCC(=O)OC [D3,4 OCH3X, dimethyl 2,2′-((9-oxo-9H-xanthene-3,4-diyl)bis(oxy))diacetate]
toxicity to Artemia salina nauplii (Artemia salina): non-toxic effects

COc1cc(C=O)c2c(=O)c3ccccc3oc2c1OC [XA11, 3,4-dimethoxy-9-oxo-9H-xanthene-1-carbaldehyde]
toxicity to Artemia salina nauplii (Artemia salina): non-toxic effects

COc1cc(CO)c2c(=O)c3ccccc3oc2c1OC [XA12, 1-(hydroxymethyl)-3,4-dimethoxy-9H-xanthen-9-one]
toxicity to Artemia salina nauplii (Artemia salina): non-toxic effects

COc1cc(C)c2c(=O)c3ccccc3oc2c1OC [XA13, 3,4-dimethoxy-1-methyl-9H-xanthen-9-one]
reduction of larval settlement ([1]; after 40 h): 29%
reduction of larval settlement ([1]; first 15 h): 50%

COc1cc(C(Br)Br)c2c(=O)c3ccccc3oc2c1OC [XA14, 1-(dibromomethyl)-3,4-dimethoxy-9H-xanthen-9-one]
toxicity to Artemia salina nauplii (Artemia salina): non-toxic effects

COc1cc(CNCCN2CCOCC2)c2c(=O)c3ccccc3oc2c1OC [XA15, 3,4-dimethoxy-1-(((2-morpholinoethyl)amino)methyl)-9H-xanthen-9-one]
toxicity to Artemia salina nauplii (Artemia salina): non-toxic effects

COc1cc(CN2CCN(CCO)CC2)c2c(=O)c3ccccc3oc2c1OC [XA18, 1-((4-(2-hydroxyethyl)piperazin-1-yl)methyl)-3,4-dimethoxy-9H-xanthen-9-one]
toxicity to Artemia salina nauplii (Artemia salina): non-toxic effects

COc1cc(CN2CCc3c(N)cccc3C2)c2c(=O)c3ccccc3oc2c1OC [XA20, 1-((5-amino-3,4-dihydroisoquinolin-2(1H)-yl)methyl)-3,4-dimethoxy-9H-xanthen-9-one]
50% inhibition of luminescence concentration (EC50) at 30 min [3]: > 300 µg/mL
EL50 (48 h) immobility (Daphnia magna): > 300 µg/mL
EL50 (72 h) alga growth inhibition [4]: > 125 µg/mL

COc1cc(CN2CCCCC2)c2c(=O)c3ccccc3oc2c1OC [XA22, 3,4-dimethoxy-1-(piperidin-1-ylmethyl)-9H-xanthen-9-one]
toxicity to Artemia salina nauplii (Artemia salina): non-toxic effects

CC1(C)CCc2cc3c(=O)c4ccccc4oc3c(O)c2O1 [XP13, 12-hydroxy-2,2-dimethyl-3,4-dihydro-2H,6H-pyrano[3,2-b]xanthen-6-one]
50% inhibition of luminescence concentration (EC50) at 30 min [3]: > 237 µg/mL
toxicity to Artemia salina nauplii (Artemia salina): non-toxic effects
